Measurements taken from patent US11897898B2, “Pyridine macrocycle compounds as ASK1 inhibiting agents” (BIOGEN MA INC., priority 2018, dated 2024).

Assays:
[1] = target: T1, ASK1 T838 auto phosphorylation (Homo sapiens, UniProt Q99683); assay: ASK1 (AUTO PHOS T838) assay in HEK-293T cells, MSD format; assay type: cell-based; conditions: HEK-293T cells transfected with ASK1-V5, 1 hr compound incubation; class symbols
T1 construct: ASK1-V5 tagged full length plasmid; expressed in transfected cells; host or cells: HEK-293T
T1 sequence (Q99683 1-1374): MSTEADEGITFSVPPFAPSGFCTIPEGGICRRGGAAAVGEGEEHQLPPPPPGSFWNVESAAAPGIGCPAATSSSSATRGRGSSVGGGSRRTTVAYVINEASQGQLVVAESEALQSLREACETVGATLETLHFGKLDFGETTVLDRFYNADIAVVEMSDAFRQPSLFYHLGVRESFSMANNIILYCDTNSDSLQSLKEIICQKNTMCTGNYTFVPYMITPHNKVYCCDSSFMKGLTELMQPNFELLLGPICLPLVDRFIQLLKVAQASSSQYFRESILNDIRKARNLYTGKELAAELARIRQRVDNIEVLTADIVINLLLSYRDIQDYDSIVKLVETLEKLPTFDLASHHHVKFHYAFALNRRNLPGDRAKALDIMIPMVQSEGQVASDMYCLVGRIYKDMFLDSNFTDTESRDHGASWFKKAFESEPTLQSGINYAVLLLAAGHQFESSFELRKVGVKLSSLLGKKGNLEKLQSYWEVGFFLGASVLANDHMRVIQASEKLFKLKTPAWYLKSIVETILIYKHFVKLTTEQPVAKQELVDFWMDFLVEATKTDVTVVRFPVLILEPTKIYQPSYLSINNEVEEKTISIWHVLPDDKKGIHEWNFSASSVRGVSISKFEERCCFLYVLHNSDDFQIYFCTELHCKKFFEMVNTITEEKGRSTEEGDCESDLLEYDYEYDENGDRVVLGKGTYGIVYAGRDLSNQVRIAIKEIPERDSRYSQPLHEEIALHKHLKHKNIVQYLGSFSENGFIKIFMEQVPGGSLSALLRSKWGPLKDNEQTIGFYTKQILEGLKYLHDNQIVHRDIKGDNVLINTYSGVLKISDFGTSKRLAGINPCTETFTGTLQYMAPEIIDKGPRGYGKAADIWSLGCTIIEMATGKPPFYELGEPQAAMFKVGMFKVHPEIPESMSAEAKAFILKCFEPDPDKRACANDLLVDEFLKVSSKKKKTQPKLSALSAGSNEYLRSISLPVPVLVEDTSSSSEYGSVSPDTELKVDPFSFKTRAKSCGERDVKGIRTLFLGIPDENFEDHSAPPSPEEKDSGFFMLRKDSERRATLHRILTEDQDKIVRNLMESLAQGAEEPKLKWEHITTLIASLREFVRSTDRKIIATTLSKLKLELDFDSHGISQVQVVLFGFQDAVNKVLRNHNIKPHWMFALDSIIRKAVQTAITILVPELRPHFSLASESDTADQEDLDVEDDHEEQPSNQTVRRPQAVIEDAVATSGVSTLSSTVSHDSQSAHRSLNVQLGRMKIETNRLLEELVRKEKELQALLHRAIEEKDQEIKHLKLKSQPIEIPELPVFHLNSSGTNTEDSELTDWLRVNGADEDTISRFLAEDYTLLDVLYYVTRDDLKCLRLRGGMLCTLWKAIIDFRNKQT
Procedure: ASK1 T838 auto phosphorylation was measured in HEK-293T cells using MSD assay format. HEK 293T cells were seeded in 15 cm plates at a density of 18 million cells and 20 mL DMEM with 10% FBS, Pen/Strep media. The plates were incubated at 37° C. overnight. Media on plates was changed to OPTI-MEM, serum free media and cells were transfected with 9 μg of ASK1-V5 tagged full length plasmid using Lipofectamine 2000 (Invitrogen) and the plates were incubated at 37° C. overnight. Cells were trypsinized, counted on Nexcellometer and plated into 96 well tissue culture plates with 100,000 cells/well and 200 μL media. Cells were incubated for 4 hr at 37° C. then ASK1 compounds were added using a HP 300e. Compounds were tested at 20 μM with 3 fold, 10 point dilution points then incubated for 1 hr at 37° C. A lysis buffer (Cell Signaling) was prepared with protease and phosphatase inhibitor and maintained at 4° C. until use. Media from cells was discarded and 120 μL of cold lysis buffer was added to the cells, the plate was shaken 4° C. for 1 hr. Lysate was mixed using Apricot liquid handler; aspirating up and down 16 times at high speed using 50 μL volume. 50 μL of cell lysates were transferred to a pre-coated MSD plates containing mouse anti-V5 antibody (1:500 dilution) and washed 3× with MSD wash buffer (TBST) and blocked with a 3% BSA solution. Plates were then incubated on a plate shaker overnight at 4° C. Plates were washed 3× with MSD wash buffer and 50 μL of rabbit anti-pASK1 T838 antibody was added to the wells and incubated for 2 hr at room temperature on a plate shaker. Plates were then washed and 50 μL of goat anti-rabbit sulfa-tag (1:500 dilution) was added to wells, and incubated for 1 hr at room temperature on a plate shaker. Plates were washed 3× and 150 μL of 2×MSD Read buffer was added to wells. Plates were immediately read on a MSD Instrument Reader where chemoluminecense signal was measured. Data was analyzed using Graph Pad or Genedata, the data was normalized and plotted, % activity versus log of compound concentration. The IC50 values were obtained from a 4 parameter fit.

[2] = In vivo brain penetration (rat Kpuu study); conditions: brain and plasma (unbound), IV infusion in the carotid artery for four hours, 1 mg/kg, steady state, Kpuu=Cu,b/Cu,p
Procedure: To evaluate the CNS penetration of the compounds described herein, several compounds were selected for in vivo rat Kpuu studies. In these experiments the compounds are administered via an IV infusion (using N,N-dimethylacetamide:ethanol:1,2-propylene glycol:water in a 1:1:3:5 ratio as the vehicle) in the carotid artery for a period of four hours (1 mg/kg, 0.1 mg/mL) to reach steady state. After this time the plasma and brain concentration levels are quantified, and the values are adjusted by the measured protein binding in plasma and brain homogenate to calculate the Kpuu (see Di, L.; Kerns, E. H. Blood-Brain Barrier in Drug Discovery (Wiley)) according to the equation below. Kpuu=Cu,b/Cu,p • Wherein: • Cu,b=Unbound concentration in brain (C×fu,b). (C=concentration at steady state; fu,b=fraction unbound in brain) • And in which: Cu,p=Unbound concentration in plasma (C×fu,p). (C=concentration at steady state; fu,p=fraction unbound in plasma)
Plasma and brain protein binding values were generated via the Rapid Equilibrium Dialysis method. The compound of interest was incubated in K2EDTA plasma and brain homogenate (homogenized 1:7 (w:v) in 1×PBS) purchased from BioIVT (Westbury, N.Y.), opposite a buffered compartment of 100 mM Potassium phosphate/150 mM Sodium chloride, pH 7.4, at 1 μM for 4 hr and 6 hr respectively. At the conclusion of incubation samples were taken from both matrix and buffered compartments, matrix-matched using blank buffer and matrix, extracted with acetonitrile, diluted with water, and analyzed utilizing an Agilent RapidFire 365 high-throughput LC coupled with MS/MS detection via an AB Sciex 5500. Free fractions (fu) were then calculated by comparing internal standard/analyte peak-area ratios of matrix and buffered compartments. Cross-species brain protein binding was considered to be equivalent for the purposes of calculating free fraction (see Di, L., et al., (2011a) Species Independence in Brain Tissue Binding Using Brain Homogenates, Drug Metab Dispos 39:1270-1277).
Total drug concentration in plasma and brain tissue was measured via well-established bioanalytical extraction (protein precipitation) and detection methods (LC-MS/MS). Brain tissues were homogenized 1:4 (w:v) with 1×PBS in MP Biomedicals Lysing Matrix D tubes via an MP Biomedicals FastPrep-24™ homogenizer and were then extracted alongside plasma samples by matrix-matching with blank K2EDTA plasma (purchased from BioIVT), followed by protein crash/extraction with acetonitrile, supernatant dry down under nitrogen, and reconstitution with an acidified aqueous/organic mixture before being measured against a calibration curve of the compound of interest prepared in plasma, matrix-matched with blank brain homogenate (generated with brains purchased from BioIVT), and similarly extracted. Reconstituted extracts were then analyzed via LC-MS/MS (AB Sciex 5500) utilizing a binary HPLC setup (Shimadzu LC-20ADvp) and reverse-phase chromatography gradient (ACE 3 C18-AR). Peak area ratios and a 1/x^2 regression fit were used to generate sample concentration values that, combined with plasma and brain protein binding values, were used to generate free drug concentration values and partitioning coefficient (Kpuu).

ASK1/MAP3K5 = target: T2, ASK1/MAP3K5 (Homo sapiens, UniProt Q99683); assay: ASK1 enzyme assay (ASK1/MAP3K5 assay by Reaction Biology Corp., 33P-ATP filter-binding); assay type: biochemical; conditions: 20 μM myelin basic protein and 10 μM ATP; class symbols
T2 construct: purchased Reaction Biology Corp. (Malvern, Pa.)
T2 sequence (Q99683 1-1374): T1 sequence (Q99683 1-1374)
Procedure: The protein kinase inhibitory activity of the compounds described herein were tested using the ASK1/MAP3K5 assay by Reaction Biology Corp. (Malvern, Pa.). The assay procedure follows (and is also available on the Reaction Biology Corp. website). • Base Reaction Buffer: 20 mM Hepes (pH 7.5), 10 mM MgCl2, 1 mM EGTA, • 0.02% Brij35, 0.02 mg/mL BSA, 0.1 mM Na3VO4, 2 mM DTT, 1% DMSO; • Substrate: 20 μM of myelin basic protein (MBP) and 10 μM ATP; • Protein kinase: ASK1/MAP3K5. • Reaction Procedure: • 1. Prepare indicated substrate in freshly prepared Base Reaction Buffer. • 2. Deliver any required cofactors to the substrate solution. • 3. Deliver indicated kinase into the substrate solution and gently mix. • 4. Deliver compounds in DMSO into the kinase reaction mixture by Acoustic; technology (Echo550; nanoliter range), incubate for 20 minutes at room temperature. • 5. Deliver ^33P-ATP (specific activity 10 μCi/μL) into the reaction mixture to initiate the reaction. • 6. Incubate kinase reaction for 2 hours at room temperature. • 7. Reactions are spotted onto P81 ion exchange paper. • 8. Detect kinase activity by filter-binding method.

SMILES	IC50 [1]	Kp uu at 4 h [2]	IC50 (ASK1/MAP3K5)
C[C@H]1CCCOc2ncc(N3CCN(C)CC3)cc2C(=O)Nc2cccc(n2)-c2nncn21 [Compound 10, (S)-10-Methyl-5^5-(4-methylpiperazin-1-yl)-1^4H-6-oxa-3-aza-2(2,6),5(3,2)-dipyridina-1(3,4)-triazolacyclodecaphan-4-one]	≤ 100 nM	< 0.1	
Cc1ccc(-c2cnc3c(c2)C(=O)Nc2cccc(n2)-c2nncn2[C@@H](C)CCCO3)cn1 [Compound 19, (S)-10-Methyl-5^5-(6-methylpyridin-3-yl)-1^4H-6-oxa-3-aza-2(2,6),5(3,2)-dipyridina-1(3,4)-triazolacyclodecaphan-4-one]	≤ 100 nM	< 0.1	

Continued, values first:

IC50 [1]	Kp uu at 4 h [2]	IC50 (ASK1/MAP3K5)	SMILES
≤ 100 nM		≤ 100 nM	C[C@H]1CCCOc2ncc(C3COC3)cc2C(=O)Nc2cccc(n2)-c2nncn21 [Compound 45, (S)-10-Methyl-5^5-(oxetan-3-yl)-1^4H-6-oxa-3-aza-2(2,6),5(3,2)-dipyridina-1(3,4)-triazolacyclodecaphan-4-one]
≤ 100 nM		≤ 100 nM	C[C@H]1CCCOc2ncc(C3CN(C(=O)OC(C)(C)C)C3)cc2C(=O)Nc2cccc(n2)-c2nncn21 [Compound 46, tert-Butyl (S)-3-(10-methyl-4-oxo-1^4H-6-oxa-3-aza-2(2,6),5(3,2)-dipyridina-1(3,4)-triazolacyclodecaphane-5^5-yl)azetidine-1-carboxylate]
100 to 1000 nM		≤ 100 nM	C[C@H]1CCCOc2ncc(C3CN(C)C3)cc2C(=O)Nc2cccc(n2)-c2nncn21 [Compound 47, (S)-10-Methyl-5^5-(1-methylazetidin-3-yl)-1^4H-6-oxa-3-aza-2(2,6),5(3,2)-dipyridina-1(3,4)-triazolacyclodecaphan-4-one]
